Values quoted from earlier work, collected in patent publication US12297161B2, “Process for making sarecycline hydrochloride” (PARATEK PHARMACEUTICALS, INC., priority 2018, dated 2025).

What was measured:
[1] = in vivo
[2] = system: aerobic Gram-negative gastrointestinal (GI) organisms; settings: compared with minocycline and doxycycline

CON(C)Cc1ccc(O)c2c1C[C@H]1C[C@H]3[C@H](N(C)C)C(O)=C(C(N)=O)C(=O)[C@@]3(O)C(O)=C1C2=O [Sarecycline, (4S, 4aS, 5aR, 12aS)-4-dimethylamino-3, 10, 12, 12a-tetrahydroxy-7-[(methoxy (methyl)amino)-methyl]-1, 11-dioxo-1,4,4a, 5,5a, 6, 11, 12a-octahydro-naphthacene-2-carboxylic acid amide]
inflammatory lesions of moderate to severe acne vulgaris [1]: reduce inflammatory lesions | antibacterial activity against aerobic Gram-negative gastrointestinal (GI) organisms [2]: more limited activity against aerobic Gram-negative gastrointestinal (GI) organisms than minocycline and doxycycline
